# In ChEMBL document CHEMBL1129081, “New neplanocin analogues. 7. Synthesis and antiviral activity of 2-halo derivatives of neplanocin A” (J Med Chem, 1996):
# What was measured:
# [1] = tested on: Vero; assay: Cytotoxic concentration required to reduce the number of Vero cells by 50%; type: cell-based; conditions: Chlorocebus sabaeus
# [2] = tested on: HEL; assay: Antiviral and cytostatic effects against VZV(Oka,YS) virus expressed in HEL cells; type: functional, cell-based; conditions: Homo sapiens
# [3] = tested on: Vero; assay: Antiviral and cytostatic effects against Sindbis virus expressed in Vero cells; type: functional, cell-based; conditions: Chlorocebus sabaeus
# [4] = tested on: E6SM; assay: Antiviral and cytostatic effects against CMV (Davis) virus expressed in […]; type: functional, cell-based; conditions: Homo sapiens
# [5] = tested on: HeLa; assay: Antiviral and cytostatic effects againstTK-VZV virus expressed in Hela cells; type: functional, cell-based; conditions: Homo sapiens
# [6] = tested on: Mumps virus; assay: Inhibitory concentration required to reduce virus Plaque formation (mumps); type: functional, organism-based; conditions: Mumps orthorubulavirus
# [7] = tested on: HeLa; assay: Antiviral and cytostatic effects against Coxsackie B4 virus expressed in HeLa cells; type: functional, cell-based; conditions: Homo sapiens
# [8] = tested on: Vero; assay: Antiviral and cytostatic effects againstTK-VZV virus expressed in Vero cells; type: functional, cell-based; conditions: Chlorocebus sabaeus
# [9] = tested on: L1210; assay: Antiviral and cytostatic effects againstTK-VZV virus expressed in L1210 cells; type: functional, cell-based; conditions: Mus musculus
# [10] = tested on: Vero; assay: Antiviral and cytostatic effects against forest virus expressed in Vero cells; type: functional, cell-based; conditions: Chlorocebus sabaeus
# [11] = tested on: MOLT-4; assay: Antiviral and cytostatic effects againstTK-VZV virus expressed in MOLT-4 cells; type: functional, cell-based; conditions: Homo sapiens
# [12] = tested on: HEL; assay: Antiviral and cytostatic effects against TK-VZV virus expressed in HEL cells; type: functional, cell-based; conditions: Homo sapiens
# [13] = tested on: Measles morbillivirus; assay: Inhibitory concentration required to reduce virus Plaque formation (measles); type: functional, organism-based
# [14] = tested on: E6SM; assay: Antiviral and cytostatic effects against Hsv-1(KOS) virus expressed in E6SM cells; type: functional, cell-based; conditions: Homo sapiens
# [15] = tested on: E6SM; assay: Antiviral and cytostatic effects againstTK-VZV virus expressed in E6SM cells; type: functional, cell-based; conditions: Homo sapiens
# [16] = tested on: Vesicular stomatitis virus; assay: Inhibitory concentration required to reduce virus -induced cytopathicity (VSV); type: functional, organism-based
# [17] = tested on: HeLa; assay: Antiviral and cytostatic effects against VSV virus expressed in Hela cells; type: functional, cell-based; conditions: Homo sapiens
# [18] = tested on: Vero; assay: Antiviral and cytostatic effects against Parainfluenza-3 virus expressed in Vero cells; type: functional, cell-based; conditions: Chlorocebus sabaeus
# [19] = tested on: E6SM; assay: Antiviral and cytostatic effects against Hsv-2(G) virus expressed in E6SM cells; type: functional, cell-based; conditions: Homo sapiens
# [20] = tested on: E6SM; assay: Antiviral and cytostatic effects against TK HSV-1( B2006) virus expressed in E6SM cells; type: functional, cell-based; conditions: Homo sapiens
# [21] = tested on: CCRF-CEM; assay: Antiviral and cytostatic effects againstTK-VZV virus expressed in CEM cells; type: functional, cell-based; conditions: Homo sapiens
# [22] = tested on: E6SM; assay: Antiviral and cytostatic effects against VV virus expressed in E6SM cells; type: functional, cell-based; conditions: Homo sapiens
# [23] = tested on: Vero; assay: Antiviral and cytostatic effects against Reo-1 virus expressed in Vero cells; type: functional, cell-based; conditions: Chlorocebus sabaeus
# [24] = tested on: Vero; assay: Antiviral and cytostatic effects against Junin virus expressed in Vero cells; type: functional, cell-based; conditions: Chlorocebus sabaeus
# [25] = tested on: FM3A; assay: Antiviral and cytostatic effects againstTK-VZV virus expressed in FM3A cells; type: functional, cell-based; conditions: Mus musculus
# [26] = tested on: Vero; assay: Antiviral and cytostatic effects against Tacaribe virus expressed in Vero cells; type: functional, cell-based; conditions: Chlorocebus sabaeus
# [27] = tested on: HeLa; assay: Antiviral and cytostatic effects against Polio-1 virus expressed in Hela cells; type: functional, cell-based; conditions: Homo sapiens
# [28] = tested on: E6SM; assay: Antiviral and cytostatic effects against VSV virus expressed in E6SM cells; type: functional, cell-based; conditions: Homo sapiens
# [29] = tested on: HEL; assay: Antiviral and cytostatic effects againstTK-VZV virus expressed in HEL cells; type: functional, cell-based; conditions: Homo sapiens
# [30] = tested on: HEL; assay: Antiviral and cytostatic effects against CMV (AD-169) virus expressed in HEL cells; type: functional, cell-based; conditions: Homo sapiens
smiles,measurement,setting,value
Nc1ncnc2c1ncn2[C@@H]1C=C(CO)[C@@H](O)[C@H]1O [NEOPLANOCIN A],IC50,[1],155 mg/L
same,IC50,[2],10 mg/L
same,IC50,[3],7 mg/L
same,IC50,[4],0.4 mg/L
same,IC50,[5],40 mg/L
same,IC50,[6],0.11 mg/L
same,IC50,[7],> 40 mg/L
same,IC50,[8],40 mg/L
same,IC50,[9],0.027 mg/L
same,IC50,[10],> 40 mg/L
same,IC50,[11],2.34 mg/L
same,IC50,[12],9 mg/L
same,IC50,[13],0.1 mg/L
same,IC50,[14],70 mg/L
same,IC50,[15],70 mg/L
same,IC50,[16],0.25 mg/L
same,IC50,[17],2 mg/L
same,IC50,[18],2 mg/L
same,IC50,[19],> 40 mg/L
same,IC50,[20],20 mg/L
same,IC50,[21],1.12 mg/L
same,IC50,[22],0.7 mg/L
same,IC50,[23],0.7 mg/L
same,IC50,[24],0.5 mg/L
same,IC50,[25],0.022 mg/L
same,IC50,[26],1.5 mg/L
same,IC50,[27],> 40 mg/L
same,IC50,[28],7 mg/L
same,IC50,[29],> 20 mg/L
C[C@H](O)C1=C[C@@H](n2cnc3c(N)nc(F)nc32)[C@H](O)[C@@H]1O,IC50,[1],> 200 mg/L
same,IC50,[6],7 mg/L
same,IC50,[13],> 25 mg/L
same,IC50,[16],16 mg/L
Nc1ncnc2c1ncn2[C@@H]1C=C[C@@H](O)[C@H]1O,IC50,[1],> 200 mg/L
same,IC50,[6],1.1 mg/L
same,IC50,[13],0.47 mg/L
same,IC50,[16],1 mg/L
Nc1nc(Cl)nc2c1ncn2[C@@H]1C=C(CO)[C@@H](O)[C@H]1O,IC50,[1],> 200 mg/L
same,IC50,[6],> 25 mg/L
same,IC50,[13],29 mg/L
same,IC50,[16],63 mg/L
Nc1nc(F)nc2c1ncn2[C@@H]1C=C[C@@H](O)[C@H]1O,IC50,[1],> 200 mg/L
same,IC50,[6],21 mg/L
same,IC50,[13],> 25 mg/L
Nc1nc(Cl)nc2c1ncn2[C@@H]1C=C[C@@H](O)[C@H]1O,IC50,[1],> 200 mg/L
same,IC50,[6],> 25 mg/L
same,IC50,[13],> 25 mg/L
Nc1nc(F)nc2c1ncn2[C@@H]1C=C(CO)[C@@H](O)[C@H]1O,IC50,[1],> 200 mg/L
same,IC50,[2],10 mg/L
same,IC50,[3],1 mg/L
same,IC50,[4],> 5 mg/L
same,IC50,[5],100 mg/L
same,IC50,[6],1.2 mg/L
same,IC50,[7],> 100 mg/L
same,IC50,[8],100 mg/L
same,IC50,[9],0.25 mg/L
same,IC50,[10],> 100 mg/L
same,IC50,[11],0.5 mg/L
same,IC50,[12],7 mg/L
same,IC50,[13],0.03 mg/L
same,IC50,[14],> 40 mg/L
same,IC50,[15],40 mg/L
same,IC50,[16],0.25 mg/L
same,IC50,[17],0.4 mg/L
same,IC50,[18],2 mg/L
same,IC50,[19],> 40 mg/L
same,IC50,[20],> 40 mg/L
same,IC50,[21],1.75 mg/L
same,IC50,[22],0.1 mg/L
same,IC50,[30],1.5 mg/L
same,IC50,[23],0.7 mg/L
same,IC50,[24],0.6 mg/L
same,IC50,[25],0.19 mg/L
same,IC50,[26],0.7 mg/L
same,IC50,[27],> 40 mg/L
same,IC50,[28],1 mg/L
same,IC50,[29],2 mg/L
C[C@H](O)C1=C[C@@H](n2cnc3c(N)ncnc32)[C@H](O)[C@@H]1O,IC50,[1],> 200 mg/L
same,IC50,[6],0.19 mg/L
same,IC50,[13],0.09 mg/L
same,IC50,[16],0.25 mg/L
